The test system of one assay is Velvetleaf. Description: Ex33 PRE 2,4-DC + fluthiacet-methyl + pyroxasulfone, % control 28 DAT, Colby. Type of assay: in vivo, Abutilon theophrasti. The source says: ANTHEM® (fluthiacet-methyl, 0.69% plus pyroxasulfone, 22.61%) was included as a standard at labeled rate, Fluthiacet-methyl at 4.9 g ai/ha and pyroxasulfone at 165 g ai/ha. […] The following weeds were screened, Palmer amaranth, Pennsylvania smartweed, velvetleaf, green foxtail, morningglory, Italian ryegrass, prickly sida, and yellow nutsedge. Crops screened were cotton, lentil, mung bean, bush bean, and cowpea. […] Thereafter flats were watered and fertilized routinely.

Another assay deals with Pennsylvania smartweed. Description: Ex15 PRE 2,4-DC + S-metolachlor, % control 28 DAT, Colby. It is filed as in vivo, Polygonum pensylvanicum. The source says:
The weeds tested in this study were redroot pigweed (Amaranthus retroflexus, AMARE), Jimsonweed (Datura stramonium, DATST), black nightshade (Solanum nigrum, SOLNI), large crabgrass (Digitaria sanguinalis, DIGSA), Pennsylvania smartweed (Polygonum pensylvanicum, POLPY), horseweed (Conyza canadensis, ERICA), wild buckwheat (Polygonum convolvulus, POLCO). The crop tested was Corn (var. Viking).
To determine PRE efficacy and corn injury, five rates of each 2,4 DC (36.7% CS) and S-metolachlor (Dual II Magnum®, 82.4%) were applied either alone or as tank-mix. 2,4 DC was applied at 0, 125, 170, 210, or 250 g ai/ha and S-metolachlor was applied at 0, 267, 534, 801, or 1070 g ai/ha. Additional treatments included application of premix of pyroxasulfone plus fluthiacet-methyl (Anthem™ 23.3%) at 169.9 g ai/ha and tank-mix of mesotrione (Callisto®, 40%) at 123 g plus S-metolachlor at 1252 g. Treatments were applied just after the planting of large crabgrass, Jimsonweed, black nightshade, redroot pigweed, Pennsylvania smartweed, horseweed, wild buckwheat, and corn.
Flats were watered and fertilized routinely after treatment application. Each treatment was replicated three times. […] Corn injury was rated for bleaching and stunting.

The next assay concerns weeds; wheat, and corn. Description: Ex38 PRE greenhouse. It is filed as in vivo. The note with it: rate in the words. An excerpt:
Pyroxasulfone plus fluthiacet-methyl (ANTHEM™, 23.3%) applied at 165 g ai/ha was included as a standard for comparison. […] Thereafter flats were watered and fertilized routinely.

For the next assay, the system named is weeds; canola. Description: Ex34 PRE greenhouse. The note with it: rate in the words. Type of assay: in vivo. The source says: Thereafter flats were watered and fertilized routinely.
The subject of assay [1] is weeds; Wheat and canola. Description: Ex27 PRE greenhouse. It is filed as in vivo. The note with it: weed and rate in the words. An excerpt:
The weeds tested in this study were Italian ryegrass (Lolium perenne. multiflorum, LOLMU), wild mustard (Sinapis arvensis, SINAR), annual bluegrass (Poa annua POAAN), wild oat (Avena fatua, AVEFA), blackgrass (Alopecurus myosuroides, ALOMY), common lambsquarters (Chenopodium album […] (Phalaris minor, PHAMI), common chickweed (Stellaria media, STEME), corn poppy (Papaver rhoeas PAPRH). The crops tested were Wheat and canola. […] Treatments were applied before the emergence of Italian ryegrass, wild oat, blackgrass, littleseed canarygrass, common chickweed, common lambsquarters, corn poppy, wild mustard, annual bluegrass, canola, and wheat. […] Flats were watered and fertilized routinely after treatment application. […] Wheat and corn poppy were rated at 14 and 21 DAT only.

The subject of assay [2] is weeds; Wheat and canola. Description: Ex44 PRE greenhouse. Type of assay: in vivo. The following applies: weed and rate in the words. The source says:
Redroot pigweed (Amaranth retroflexus, AMARE), Italian ryegrass (Lolium perenne. multiflorum, LOLMU), wild mustard (Sinapis arvensis, SINAR), annual bluegrass (Poa annua POAAN), wild oat (Avena fatua, AVEFA), blackgrass (Alopecurus myosuroides, ALOMY), common lambsquarters (Chenopodium album, […] (Phalaris minor, PHAMI), common chickweed (Stellaria media, STEME), corn poppy (Papaver rhoeas, PAPRH) and silky […]). Crops tested included wheat and canola. […] Treatments were applied before the emergence of redroot pigweed, Italian ryegrass, wild oat, blackgrass, littleseed canarygrass, common chickweed, common lambsquarters, corn poppy, wild mustard, annual bluegrass, silky […], canola, and wheat. […] Flats were watered and fertilized routinely after treatment application.

The next assay deals with weeds; Sugarcane (CTC20). Description: Ex23 PRE greenhouse. The following applies: 28 DAT, weed and rate in the words.
The subject of assay [3] is weeds; Wheat and canola. Description: Ex29 PRE greenhouse. It is filed as in vivo. The note with it: 28 DAT, weed, crop, rate in the words. The source says:
The tested weeds include Italian ryegrass (Lolium perenne. multiflorum, LOLMU), wild mustard (Sinapis arvensis, SINAR), annual bluegrass (Poa annua, POAAN), wild oat (Avena fatua, AVEFA), blackgrass (Alopecurus myosuroides, ALOMY), common lambsquarters (Chenopodium album, CHEAL), littleseed canarygrass (Phalaris minor, PHAMI), common chickweed (Stellaria media, STEME), corn poppy (Papaver rhoeas, PAPRH), redroot pigweed (Amaranthus retroflexus, AMARE), silky windgrass (Apera spica-venti, APSEV), wild buckwheat (Polygonum convolvulus, POLCO). The crops teased were Wheat and canola.
Treatments were applied before the emergence of Italian ryegrass, wild oat, wild buckwheat, blackgrass, littleseed canarygrass, common chickweed, common lambsquarters, corn poppy, silky windgrass, redroot pigweed, wild mustard, annual bluegrass, canola, and wheat. […] Flats were watered and fertilized routinely after treatment application.

Another assay deals with weeds; Corn. Description: Ex25 PRE greenhouse. Type of assay: in vivo. The note with it: rate in the words. The source says:
The crop tested in this study was Corn.
2,4 DC-21 (36.7% CS) was applied PRE at 0, 125, 170, 210, or 250 g ai/ha alone or as a tank-mix with pyroxasulfone (KIH-485, 85% WP) at 0, 50, 65, 80, or 95 g ai/ha. Pyroxasulfone plus fluthiacet-methyl (Anthem™, 23.3%) applied at 169.9 g ai/ha, s-metolachlor (Dual II Magnum®, 82.4%) applied at 1389 g, and the tank-mix of mesotrione (Callisto®, 40%) at 123 g plus s-metolachlor (Dual II Magnum®, 82.4%) at 1252 g were included as a standards for comparison. […] Thereafter flats were watered and fertilized routinely.

In another assay the test system is weeds; Wheat and Barley. Description: Ex36 POST greenhouse. Type of assay: in vivo. The following applies: rate in the words. The source says: Crops screened were wheat and barley.

Structures are written as SMILES.

`CC1(C)CON(Cc2ccc(Cl)cc2Cl)C1=O` [2,4-DC, 2-(2,4-dichlorophenyl)methyl-4,4-dimethyl-3-isoxazolidinone]: the X in the assay on Velvetleaf (2,4-DC alone 31 g ai/ha) worked out at 7%; in the assay on Velvetleaf (2,4-DC alone 63 g ai/ha), 23%; in the assay on Velvetleaf (2,4-DC alone 125 g ai/ha), 27%; with Velvetleaf (2,4-DC alone 250 g ai/ha), 30%; in the assay on Velvetleaf (2,4-DC alone 375 g ai/ha), 89%; in the assay on Pennsylvania smartweed (2,4-DC alone 125 g ai/ha), 38%. In addition, the X is given as 67% in the assay with Pennsylvania smartweed (2,4-DC alone 170 g ai/ha), 80% with Pennsylvania smartweed (2,4-DC alone 210 g ai/ha) and 78% in the assay with Pennsylvania smartweed (2,4-DC alone 250 g ai/ha). The “weed control / crop safety in words” value in the assay on weeds; wheat, and corn was “applied alone at ≥50 g ai/ha controlled (≥85%) kochia, at ≥200 g controlled Italian ryegrass or redroot pigweed, and controlled velvetleaf at 400 g”; in the assay on weeds; canola, “applied alone at 31.2 g ai/ha controlled common chickweed, at 125 g controlled common lambsquarters and injured canola, at 250 g controlled blackgrass and Italian ryegrass”; in the assay on weeds; Wheat and canola [3] it was “alone gave control of pigweed and Italian ryegrass at ≥200 g ai/ha, corn poppy and wild oat at 400 g, blackgrass at ≥100 g, and common chickweed at all rates”; in the assay on weeds; Corn, “applied alone controlled (≥85% injury) black nightshade at 170 g ai/ha, did not provide control of other weeds tested when applied alone at any rate, and was safe on corn at all rates”; in the assay on weeds; Wheat and Barley, “alone applied to barley was safe at 50 g ai/ha”. Besides, the “weed control in words” value with weeds; Wheat and canola [1] was “provided good control of blackgrass at 375 g; controlled Italian ryegrass at ≥125 g and common chickweed at all rates”; in the assay with weeds; Wheat and canola [2] it was “alone provided control of corn poppy at ≥100 g, Italian ryegrass at ≥200 g, lambsquarters, 400 g, blackgrass at ≥200 g, silky windgrass at ≥100 g and chickweed at all rates”; in the assay with weeds; Sugarcane (CTC20), “applied alone at ≥500 g ai/ha controlled (≥85% injury) large crabgrass and redroot pigweed”.
